Source: patent publication US11040959B2, “Diprovocims: a new and potent class of TLR agonists” (The Scripps Research Institute, priority 2016, dated 2021)
Read-outs that look alike come from different tables or passages of the source.

Tests used:
[1] = system: differentiated human THP-1 cells; experiment: stimulated release of TNF-α from differentiated human THP-1 cells (ELISA, dose-response); format: cell-based; settings: for EC50: Homo sapiens
How it was run: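 Human THP-1 cells were PMA-differentiated toward macrophages, and stimulated TNF-α release was measured by ELISA. EC50 values were taken from dose-response curves.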

mouse macrophages = experiment: stimulated release of TNF-α from mouse macrophages; format: cell-based; settings: for EC50: Macrophage
How it was run: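 EC50 derived from dose-response curves for stimulated TNF-α release from mouse macrophages.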

[2] = THP-1, running text, read-out: EC50, stimulated release of TNF-α from differentiated human THP-1 cells
[3] = Mus musculus, read-out: EC50, stimulated release of TNF-α from mouse macrophages
[4] = THP-1, table of 133-139 (two lipid side chains), human THP-1 cells, read-out: EC50 (nM) (THP-1)
[5] = table of 133-139 (two lipid side chains), mouse macrophages, read-out: EC50 (nM) (mouse)

Q: Which EC50 [1, 2] does the source give for O=C(N[C@H]1C[C@@H]1c1ccccc1)[C@@H]1CN(C(=O)c2ccc(C(=O)N3C[C@@H](C(=O)N[C@H]4C[C@@H]4c4ccccc4)[C@H](C(=O)N[C@H]4C[C@@H]4c4ccccc4)C3)cc2)C[C@H]1C(=O)N[C@H]1C[C@@H]1c1ccccc1 (racemic) [Compound 12, trans, trans-1,1′-Terephthaloylbis-(N^3,N^4-bis-(trans-2-phenylcyclopropyl)pyrrolidine-3,4-dicarboxamide)] here?
A: The EC50 was 10 nM.

Q: And the “efficacy of TNF-α release compared with reference agonist” value ([1]; versus LPS or Pam3CSK4, side-by-side)?
A: The value was “equally efficacious with LPS”.

Q: And the EC50 (mouse macrophages; [3])?
A: The EC50 was 100 nM.

Q: What does the source list for O=C(NCCc1ccc(F)cc1)[C@@H]1CN(C(=O)c2ccc(C(=O)N3C[C@@H](C(=O)NCCc4ccc(F)cc4)[C@H](C(=O)NCCc4ccc(F)cc4)C3)cc2)C[C@H]1C(=O)NCCc1ccc(F)cc1 [Compound 4, (3S,3′S,4S,4′S)-1,1′-Terephthaloylbis(N^3,N^4-bis(4-fluorophenethyl)-pyrrolidine-3,4-dicarboxamide)]?
A: EC50 ([1]; THP-1, Table 7, TNF-α release from human THP-1 cells, read-out: EC50 (nM) (THP-1)): 50 nM; EC50 [1, 2]: 50 nM; fold more potent than the all racemate ([1]; human THP-1 cells, single enantiomer versus its all racemate mixture): 3 fold; EC50 (mouse macrophages; Table 7, TNF-α release from mouse macrophages, read-out: EC50 (nM) (mouse)): > 5000 nM

Q: With CCCCCCNC(=O)[C@@H]1CN(C(=O)c2ccc(C(=O)N3C[C@@H](C(=O)N[C@H]4C[C@@H]4c4ccccc4)[C@H](C(=O)N[C@H]4C[C@@H]4c4ccccc4)C3)cc2)C[C@H]1C(=O)NCCCCCC [Compound 138, (3S,4S)-1-(4-((3S,4S)-3,4-Bis(((1S,2R)-2-phenylcyclopropyl)carbamoyl)-pyrrolidine-1-carbonyl)benzoyl)-N^3,N^4-dihexylpyrrolidine-3,4-dicarboxamide] as the molecule, how does the EC50 [1, 2] read?
A: The EC50 was 0.18 nM.

Q: And the EC50 [1, 4]?
A: Its EC50 is 0.18 nM.

Q: What about the “fold less active/potent than diprovocim-1 (3)” value ([1]; human THP-1 cells) of the same molecule?
A: Its value is 2 fold.

Q: What about the “potency differential human THP-1 cells versus mouse macrophages” value ([1]; ratio of mouse to human potency) of the same molecule?
A: Its value is 20 fold.

Q: What about the EC50 (mouse macrophages; [5]) of the same molecule?
A: The EC50 was 4 nM.

Q: What about the EC50 (mouse macrophages; [3]) of the same molecule?
A: The EC50 was 4 nM.

Q: What about the “fold less potent/effective than diprovocim-1” value (mouse macrophages; mouse macrophages) of the same molecule?
A: Its value is 4 fold.

Q: How did the EC50 ([1]; THP-1, Table 2, TNF-α release from human THP-1 cells, read-out: EC50 (nM) (THP-1)) turn out when O=C(N[C@H]1C[C@@H]1c1ccccc1)[C@@H]1CN(C(=O)c2cccc3c(C(=O)N4C[C@@H](C(=O)N[C@H]5C[C@@H]5c5ccccc5)[C@H](C(=O)N[C@H]5C[C@@H]5c5ccccc5)C4)cccc23)C[C@H]1C(=O)N[C@H]1C[C@@H]1c1ccccc1 [Compound 47, (3S,3′S,4S,4′S)-1,1′-(Naphthalene-1,5-dicarbonyl)bis(N^3,N^4-bis((1S,2R)-2-phenylcyclopropyl)-pyrrolidine-3,4-dicarboxamide)] was run?
A: The EC50 was > 5000 nM.

Q: And the EC50 (mouse macrophages; Table 2, TNF-α release from mouse macrophages, read-out: EC50 (nM) (mouse))?
A: Its EC50 is > 5000 nM.

Q: How did the EC50 [1, 4] turn out when CCCCCCCCCCNC(=O)[C@@H]1CN(C(=O)c2ccc(C(=O)N3C[C@@H](C(=O)N[C@H]4C[C@@H]4c4ccccc4)[C@H](C(=O)N[C@H]4C[C@@H]4c4ccccc4)C3)cc2)C[C@H]1C(=O)NCCCCCCCCCC [Compound 136, (3S,4S)-1-(4-((3S,4S)-3,4-Bis(((1S,2R)-2-phenylcyclopropyl)carbamoyl)pyrrolidine-1-carbonyl)benzoyl)-N^3,N^4-didecylpyrrolidine-3,4-dicarboxamide] was run?
A: Its EC50 is 0.28 nM.

Q: And the EC50 (mouse macrophages; [5])?
A: The EC50 was 60 nM.

Q: For CCCCCCCCCCCCCCCCNC(=O)[C@@H]1CN(C(=O)c2ccc(C(=O)N3C[C@@H](C(=O)N[C@H]4C[C@@H]4c4ccccc4)[C@H](C(=O)N[C@H]4C[C@@H]4c4ccccc4)C3)cc2)C[C@H]1C(=O)NCCCCCCCCCCCCCCCC [Compound 133, (3S,4S)-1-(4-((3S,4S)-3,4-Bis(((1S,2R)-2-phenyl-cyclopropyl)carbamoyl)pyrrolidine-1-carbonyl)-benzoyl)-N^3,N^4-dihexadecylpyrrolidine-3,4-dicarboxamide], which EC50 [1, 4] is on record?
A: The EC50 was 2.5 nM.

Q: What about the EC50 (mouse macrophages; [5]) of the same molecule?
A: The EC50 was 1000 nM.

Q: How did the EC50 ([1]; THP-1, table of 125-132 (one lipid side chain, R and S), human THP-1 cells, read-out: EC50 (nM) (THP-1)) turn out when CCCCCCCCCCNC(=O)[C@@H]1CCN(C(=O)c2ccc(C(=O)N3C[C@@H](C(=O)N[C@H]4C[C@@H]4c4ccccc4)[C@H](C(=O)N[C@H]4C[C@@H]4c4ccccc4)C3)cc2)C1 [Compound 128, (3S,4S)-1-(4-((R)-3-(Decylcarbamoyl)pyrrolidine-1-carbonyl)benzoyl)—N^3,N^4-bis((1S,2R)-2-phenyl-cyclopropyl)pyrrolidine-3,4-dicarboxamide] was run?
A: Its EC50 is 210 nM.

Q: What about the EC50 (mouse macrophages; table of 125-132 (one lipid side chain, R and S), mouse macrophages, read-out: EC50 (nM) (mouse)) of the same molecule?
A: Its EC50 is 2400 nM.
